Where a name gives a salt, the structure may show the parent alone.
How the values were obtained:
Abl kinase = Abl kinase (Homo sapiens, UniProt P00519); assay: biochemical; conditions: Abl IC50 (nM), Abl kinase (Invitrogen, 20 ng/well), Abltide 100 μM, ATP 500 nM, 37° C. for 60 minutes, top concentration 10 uM
Abl (T315I) = molecular target: T1, Abl (T315I) (Homo sapiens, UniProt P00519, T315I); assay: Abl (T315I) Kinase Assay (KinaseGlo luminescent detection of residual ATP); type: biochemical; conditions: Abl (T315I) IC50 (nM), Abl (T315I) (Upstate, 17 ng/well), Abltide 100 uM, ATP 500 nM, 60 minutes at 37° C.
T1 construct: purchased Upstate
Method: The assay was performed similarly to the Abl kinase assay. Abl (T315I) (Upstate, 17 ng/well); Abltide substrate (100 uM) and ATP (500 nM) comprised the reaction mixture. Compound was similarly diluted, and the reaction plate was incubated for 60 minutes at 37° C.

Cc1cc(S(=O)(=O)N2CCNCC2)ccc1Nc1ncc(/C=C/c2cccc(O)c2)cn1 [3-(2-{2-[2-Methyl-4-(piperazine-1-sulfonyl)-phenylamino]-pyrimidin-5-yl}-vinyl)-phenol]
IC50 (Abl kinase): 3450 nM | IC50 (Abl (T315I)): 10400 nM

Nc1nc2ccc(/C=C/c3cnc(Nc4ccc(S(=O)(=O)NC5CCCNC5)cc4)nc3)cc2s1 (centres unmarked) [4-{5-[2-(2-Aminobenzothiazol-6-yl)-vinyl]-pyrimidin-2-ylamino}-N-piperidin-3-yl-benzenesulfonamide Hydrochloride]
IC50 (Abl kinase): 1440 nM | IC50 (Abl (T315I)): 898 nM

C[C@H](N)C(=O)N1CCC(S(=O)(=O)c2ccc(Nc3ncc(/C=C/c4cccc5[nH]ccc45)cn3)cc2)CC1 [(S)-1-(4-(4-(5-((E)-2-(1H-indol-4-yl)vinyl)pyrimidin-2-ylamino)phenylsulfonyl)piperidin-1-yl)-2-aminopropan-1-one hydrochloride]
IC50 (Abl kinase): 43 nM | IC50 (Abl (T315I)): 464 nM

O=S(=O)(c1ccc(Nc2ncc(/C=C/c3ccccc3)cn2)cc1NCCO)N1CCNCC1 [2-{[5-({5-[(E)-2-phenylvinyl]pyrimidin-2-yl}amino)-2-(piperazin-1-ylsulfonyl)phenyl]amino}ethanol trifluoroacetic acid salt]
IC50 (Abl kinase): 131 nM | IC50 (Abl (T315I)): 2500 nM

Nc1nc2ccc(/C=C/c3cnc(Nc4ccc(S(=O)(=O)CCCN5CCCC5)cc4)nc3)cc2s1 [6-{(E)-2-[2-({4-[(3-pyrrolidin-1-ylpropyl)sulfonyl]phenyl}amino)pyrimidin-5-yl]vinyl}-1,3-benzothiazol-2-amine trifluoroacetic acid salt]
IC50 (Abl kinase): 81 nM | IC50 (Abl (T315I)): 173 nM

Nc1cn2cc(/C=C/c3cnc(Nc4ccc(S(=O)(=O)C5CCNCC5)cc4)nc3)ccc2n1 [6-[(E)-2-(2-{[4-(piperidin-4-ylsulfonyl)phenyl]amino}pyrimidin-5-yl)vinyl]imidazolo[1,2-a]pyridin-2-amine trifluoroacetic acid salt]
IC50 (Abl kinase): 469 nM | IC50 (Abl (T315I)): 136 nM

C=Cc1cnc(Nc2ccc(S(=O)(=O)C3CCN(C)CC3)cc2)nc1 [N-(4-(1-methylpiperidin-4-ylsulfonyl)phenyl)-5-vinylpyrimidin-2-amine]
IC50 (Abl kinase): 4250 nM | IC50 (Abl (T315I)): 1570 nM

O=S(=O)(NCCN1CCCC1)c1ccc(Nc2ncc(CCc3cc(O)ccc3Cl)cn2)cc1 [4-{5-[2-(2-Chloro-5-hydroxy-phenyl)-ethyl]-pyrimidin-2-ylamino}-N-(2-benzenesulfonamide hydrochloride]
IC50 (Abl kinase): 5 nM | IC50 (Abl (T315I)): 805 nM

Nc1nc2ccc(/C=C/c3cnc(Nc4ccc(S(=O)(=O)N5CCNCC5)c(N5CCNCC5)c4)nc3)cc2s1 [6-[(E)-2-(2-{[3-piperazin-1-yl-4-(piperazin-1-ylsulfonyl)phenyl]amino}pyrimidin-5-yl)vinyl]-1,3-benzothiazol-2-amine]
IC50 (Abl kinase): 318 nM | IC50 (Abl (T315I)): 152 nM

Nc1nc2c(/C=C/c3cnc(Nc4ccc(S(=O)(=O)C5CCNCC5)cc4)nc3)cccc2s1 [4-((E)-2-(2-(4-(piperidin-4-ylsulfonyl)phenylamino)pyrimidin-5-yl)vinyl)benzo[d]thiazol-2-amine Hydrochloride]
IC50 (Abl kinase): 39 nM | IC50 (Abl (T315I)): 394 nM

O=S(=O)(c1ccc(Nc2ncc(/C=C/c3cccc4[nH]ncc34)cn2)cc1NCCO)N1CCNCC1 [2-{[5-({5-[(E)-2-(1H-indazol-4-yl)vinyl]pyrimidin-2-yl}amino)-2-(piperazin-1-ylsulfonyl)phenyl]amino}ethanol]
IC50 (Abl kinase): 6.5 nM | IC50 (Abl (T315I)): 233 nM

O=S(=O)(NCCO)c1ccc(Nc2ncc(/C=C/c3cccc4[nH]ncc34)cn2)cc1N1CCNCC1 [N-(2-hydroxyethyl)-4-({5-[(E)-2-(1H-indazol-4-yl)vinyl]pyrimidin-2-yl}amino)-2-piperazin-1-ylbenzenesulfonamide trifluoroacetic acid salt]
IC50 (Abl kinase): 30 nM | IC50 (Abl (T315I)): 81 nM

O=S(=O)(c1ccc(Nc2ncc(/C=C/c3ccc4c(c3)CC/C4=N/O)cn2)cc1)C1CCNCC1 [5-(2-{2-[4-(Piperidine-4-sulfonyl)-phenylamino]-pyrimidin-5-yl}-vinyl)-indan-1-one oxime]
IC50 (Abl kinase): 593 nM | IC50 (Abl (T315I)): 3650 nM

O=S(=O)(NC1CCNCC1)c1ccc(Nc2ncc(/C=C/c3cccc4[nH]ccc34)cn2)cc1 [4-{5-[2-(1H-Indol-4-yl)-vinyl]-pyrimidin-2-ylamino}-N-piperidin-4-yl-benzenesulfonamide]
IC50 (Abl kinase): 12 nM | IC50 (Abl (T315I)): 282 nM

O=S(=O)(CCCN1CCNCC1)c1ccc(Nc2ncc(/C=C/c3cccc4[nH]ccc34)cn2)cc1 [{5-[2-(1H-Indol-4-yl)-vinyl]-pyrimidin-2-yl}-[4-(3-piperazin-1-yl-propane-1-sulfonyl)-phenyl]-amine]
IC50 (Abl kinase): 54 nM | IC50 (Abl (T315I)): 488 nM

O=C(Nc1cn2cc(/C=C/c3cnc(Nc4ccc(S(=O)(=O)C5CCNCC5)cc4)nc3)ccc2n1)C(F)(F)F [2,2,2-Trifluoro-N-{6-[(E)-2-(2-{[4-(piperidin-4-ylsulfonyl)phenyl]amino}pyrimidin-5-yl)vinyl]imidazolo[1,2-a]pyridin-2-yl}acetamide trifluoroacetic acid salt]
IC50 (Abl kinase): 1130 nM | IC50 (Abl (T315I)): 475 nM

Nc1nc2ccc(/C=C/c3cnc(Nc4ccc(S(=O)(=O)C5CCCNCC5)cc4)nc3)cc2s1 (centres unmarked) [6-(2-{2-[4-(Azepane-4-sulfonyl)-phenylamino]-pyrimidin-5-yl}-vinyl)-benzothiazol-2-ylamine]
IC50 (Abl kinase): 27 nM | IC50 (Abl (T315I)): 14 nM

O=C(Nc1nc2ccc(/C=C/c3cnc(Nc4ccc(S(=O)(=O)C5CCNCC5)cc4)nc3)cc2s1)c1cccc(F)c1 [N-(6-((E)-2-(2-(4-(piperidin-4-ylsulfonyl)phenylamino)pyrimidin-5-yl)vinyl)benzo[d]thiazol-2-yl)-3-fluorobenzamide Hydrochloride]
IC50 (Abl kinase): 629 nM | IC50 (Abl (T315I)): 2740 nM

O=S(=O)(c1ccc(Nc2ncc(/C=C/c3cc(O)ccc3Cl)cn2)cc1)C1CCNCC1 [4-Chloro-3-(2-{2-[4-(piperidine-4-sulfonyl)-phenylamino]-pyrimidin-5-yl}-vinyl)-phenol]
IC50 (Abl kinase): 3.8 nM | IC50 (Abl (T315I)): 96 nM

Cc1cc(Nc2ncc(/C=C/c3cccc(O)c3)cn2)cc(C)c1S(=O)(=O)N(C)CCN1CCCC1 [4-{5-[2-(3-Hydroxy-phenyl)-vinyl]-pyrimidin-2-ylamino}-2,6,N-trimethyl-N-(2-pyrrolidin-1-yl-ethyl)-benzenesulfonamide]
IC50 (Abl kinase): 16 nM | IC50 (Abl (T315I)): 248 nM

O=S(=O)(c1ccc(Nc2ncc(/C=C/c3ccc(C(F)F)cc3)cn2)cc1)C1CCNCC1 [5-(4-(difluoromethyl)styryl)-N-(4-(piperidin-4-ylsulfonyl)phenyl)pyrimidin-2-amine. Triflate]
IC50 (Abl kinase): 429 nM | IC50 (Abl (T315I)): 1330 nM

NS(=O)(=O)c1cccc(/C=C/c2cnc(Nc3ccc(S(=O)(=O)N4CCCNCC4)cc3)nc2)c1 [3-(2-{2-[4-([1,4]Diazepane-1-sulfonyl)-phenylamino]-pyrimidin-5-yl}-vinyl)-benzenesulfonamide]
IC50 (Abl kinase): 781 nM | IC50 (Abl (T315I)): 2440 nM

CN1CCN(S(=O)(=O)c2cccc(Nc3ncc(/C=C/c4cccc5[nH]ccc45)cn3)c2)CC1 [5-[(E)-2-(1H-indol-4-yl)vinyl]-N-{3-[(4-methylpiperazin-1-yl)sulfonyl]phenyl}pyrimidin-2-amine]
IC50 (Abl kinase): 784 nM | IC50 (Abl (T315I)): ~10000 nM

O=S(=O)(c1ccc(Nc2ncc(/C=C/c3cccc(O)c3)cn2)cc1C(F)(F)F)N1CCNCC1 [3-(2-{2-[4-(Piperazine-1-sulfonyl)-3-trifluoromethyl-phenylamino]-pyrimidin-5-yl}-vinyl)-phenol]
IC50 (Abl kinase): 222 nM | IC50 (Abl (T315I)): 1410 nM

O=C(Nc1cccc(/C=C/c2cnc(Nc3ccc(S(=O)(=O)C4CCNCC4)cc3)nc2)c1)c1cccc(C(F)(F)F)c1 [N-(3-((E)-2-(2-(4-(piperidin-4-ylsulfonyl)phenylamino)pyrimidin-5-yl)vinyl)phenyl)-3-(trifluoromethyl)benzamide Hydrochloride]
IC50 (Abl kinase): 17 nM | IC50 (Abl (T315I)): 1280 nM

O=S(=O)(NCCN1CCCC1)c1ccc(Nc2ncc(/C=C/c3cc(O)ccc3F)cn2)cc1 [4-{5-[2-(2-Fluoro-5-hydroxy-phenyl)-vinyl]-pyrimidin-2-ylamino}-N-(2-pyrrolidin-1-yl-ethyl)-benzenesulfonamide]
IC50 (Abl kinase): 25 nM | IC50 (Abl (T315I)): 240 nM

Cc1nc(Nc2ccc(S(=O)(=O)NCCN3CCCC3)cc2)ncc1/C=C/c1cccc(O)c1 [4-{5-[2-(3-Hydroxy-phenyl)-vinyl]-4-methyl-pyrimidin-2-ylamino}-N-(2-pyrrolidin-1-yl-ethyl)-benzenesulfonamide]
IC50 (Abl kinase): 39 nM | IC50 (Abl (T315I)): 436 nM

O=S(=O)(c1ccc(Nc2ncc(/C=C/c3cc(Cl)cc4[nH]nnc34)cn2)cc1)N1CCNCC1 [[4-(Piperazine-1-sulfonyl)-phenyl]-{5-[2-(6-chloro-1H-benzotriazol-4-yl)-vinyl]-pyrimidin-2-yl}-amine]
IC50 (Abl kinase): 61 nM | IC50 (Abl (T315I)): 21 nM

Nc1nc2ccc(/C=C/c3cnc(Nc4ccc([S+]([O-])CCN5CCOCC5)cc4)nc3)cc2s1 (centres unmarked) [6-(2-{2-[4-(2-Morpholin-4-yl-ethanesulfinyl)-phenylamino]-pyrimidin-5-yl}-vinyl)-benzothiazol-2-ylamine]
IC50 (Abl kinase): 272 nM | IC50 (Abl (T315I)): 283 nM

O=S(=O)(c1ccc(Nc2ncc(/C=C/c3n[nH]c4ccccc34)cn2)cc1)C1CCNCC1 [5-((E)-2-(1H-indazol-3-yl)vinyl)-N-(4-(piperidin-4-ylsulfonyl)phenyl)pyrimidin-2-amine Hydrochloride]
IC50 (Abl kinase): 191 nM | IC50 (Abl (T315I)): 202 nM

Nc1nc2ccc(/C=C/c3cnc(Nc4ccc(S(=O)(=O)N5CCC(N)CC5)cc4)nc3)cc2s1 [6-{(E)-2-[2-({4-[(4-aminopiperidin-1-yl)sulfonyl]phenyl}amino)pyrimidin-5-yl]vinyl}-1,3-benzothiazol-2-amine]
IC50 (Abl kinase): 42 nM | IC50 (Abl (T315I)): 21 nM

Source: patent US20070149508A1, “Six membered heteroaromatic inhibitors targeting resistant kinase mutations” (TargeGen, Inc., priority 2005, published 2007)
